Experimental data reported in patent US20190246647A1, “COMPOSITIONS AND RELATED METHODS FOR MODULATING ENDOSYMBIONTS” (Flagship Pioneering Innovations V, Inc., priority 2017, published 2019).
Entries after “also recorded” stand apart in the source; their conditions may differ. {Cy3} = Cy3 dye attached by azide-DBCO click chemistry

How the values were obtained:
BCR-4 [1] = experiment: BCR-4 PNA microinjection: BCR-4 expression by RT-qPCR; assay type: in vivo, Acyrthosiphon pisum; details: after 7 days
Procedure: (§1) Microinjection was performed using NanoJet III Auto-Nanoliter Injector with an in-house pulled borosilicate needle (Drummond Scientific; Cat#3-000-203-G/XL). Aphids were transferred using a paint brush to a tubing system connected to vacuum which held them in place during the injection. The injection site was at the ventral thorax of the aphid. The injection solutions were water (negative control) or 321 ng/μl of BCR-4 PNA in water. The injection volume was 20 nl for adult (4th and 5th instar) aphids at a rate of 2 nl/sec. Each treatment group had approximately the same number of individuals injected from each of the collection plants. After injection, aphids were released into a petri dish onto fava bean leaves that had stems in an Eppendorf tube filled with 1 ml water. Survival and fecundity were monitored over the course of the experiment.
Aphids LSR-1 (which harbor only Buchnera), A. pisum were grown on fava bean plants (Vroma vicia faba from Johnny's Selected Seeds) in a climate-controlled incubator (16 h light/8 h dark photoperiod; 60±5% RH; 25±2° C.). […]
After 7 days of treatment, RNA was extracted from the remaining aphids in each treatment group. […] RNA concentrations were measured using a nanodrop nucleic acid quantification. BCR-4 relative expression was measured by RT-qPCR. […] RT-qPCR data was analyzed using analytic (Thermo Fisher Scientific, QuantStudio Design and Analysis) software.

Aphids LSR-1, A. pisum = experiment: BCR-4 PNA microinjection: aphid survival and fecundity; assay type: in vivo, Acyrthosiphon pisum
Procedure: as §1
Aphids LSR-1 (which harbor only Buchnera), A. pisum were grown on fava bean plants (Vroma vicia faba from Johnny's Selected Seeds) in a climate-controlled incubator (16 h light/8 h dark photoperiod; 60±5% RH; 25±2° C.). Prior to being used for aphid rearing, fava bean plants were grown in potting soil at 24° C. with 16 h of light and 8 h of darkness. To limit maternal effects or health differences between plants, 5-10 adults from different plants were distributed among 10 two-week-old plants, and allowed to multiply to high density for 5-7 days. For experiments, fourth and fifth instar aphids were collected from healthy plants and divided into two treatment groups: 1) water (negative control) or 2) BCR-4 PNA in water.

[2] = system: Aphids (LSR-1 strain, Acyrthosiphon pisum); experiment: BCR-4 PNA leaf perfusion: aphid survival and development; assay type: in vivo; details: for effect on aphid development / effect on aphid mortality: leaf perfusion, vs water
Procedure: Aphids (LSR-1 strain, Acyrthosiphon pisum) were grown on fava bean plants (Vroma vicia faba from Johnny's Selected Seeds) in a climate-controlled incubator (16 h light/8 h dark photoperiod; 60±5% RH; 25±2° C.). Prior to being used for aphid rearing, fava bean plants were grown in potting soil at 24° C. with 16 h of light and 8 h of darkness. To limit maternal effects or health differences between plants, 5-10 adults from different plants were distributed among 10 two-week-old plants and allowed to multiply to high density for 5-7 days. For experiments, first and second instar aphids were collected from healthy plants and divided into two different treatment groups: 1) those allowed to feed on leaves perfused with water, and, 2) those allowed to feed on leaves perfused with a BCR-4 PNA solution in water.
For each leaf perfusion, approximately 1 ml of water (negative control) or a 1 uM BCR-4 PNA solution was injected into a fava bean leaf. The stem of the leaf was then placed in a 1.5 ml Eppendorf that was sealed with parafilm. The leaf stem was then placed into a deep petri dish (Fisher Scientific, Cat# FB0875711) and aphids were applied to the leaves of the plant and allowed to feed. Old leaves were replaced with new, freshly injected leaves every 2-3 days throughout the experiment. For each treatment, 60 aphids were placed onto each leaf. Aphids were monitored daily for survival and dead aphids were removed when they were discovered. In addition, the developmental stage (1st, 2nd, 3rd, 4th, and 5th instar) was determined daily throughout the experiment.

Buchnera = experiment: BCR-4 PNA leaf perfusion: Buchnera/aphid copies by qPCR; assay type: in vivo; details: for effect on Buchnera titers: vs water
Procedure: After 5 and 6 days of treatment, DNA was extracted from dead aphids from each treatment group. Briefly, the aphid body surface was sterilized by dipping the aphid into a 6% bleach solution for approximately 5 seconds. Aphids were then rinsed in sterile water and DNA was extracted from each individual aphid using a DNA extraction kit (Qiagen, DNeasy kit) according to manufacturer's instructions. DNA concentration was measured using a nanodrop nucleic acid quantification, and Buchnera and aphid DNA copy numbers were measured by qPCR. The primers used for Buchnera were Buch_groES_18F ([…]; SEQ ID NO: 101) and Buch_groES_98R ([…]; SEQ ID NO: 102) (Chong and Moran, 2016 PNAS). The primers used for aphid were ApEF1a 107F ([…]; SEQ ID NO: 103) and ApEF1a 246R ([…]; SEQ ID NO: 104) (Chong and Moran, 2016 PNAS). qPCR was performed using a qPCR amplification ramp of 1.6 degrees C./s and the following conditions: 1) 95° C. for 10 minutes, 2) 95° C. for 15 seconds, 3) 55° C. for 30 seconds, 4) repeat steps 2-3 40×, 5) 95° C. for 15 seconds, 6) 55° C. for 1 minute, 7) ramp change to 0.15 degrees C./s, 8) 95° C. for 1 second. qPCR data was analyzed using analytic (Thermo Fisher Scientific, QuantStudio Design and Analysis) software.

BCR-4 [3] = experiment: BCR-4 PNA leaf perfusion: BCR-4 expression by RT-qPCR; assay type: in vivo, Acyrthosiphon pisum; details: for effect on BCR-4 expression: day 7, vs water
Procedure: After 7 days of treatment, RNA was extracted from the remaining aphids in each treatment group. Briefly, the aphid body surface was sterilized by dipping the aphid into a 6% bleach solution for approximately 5 seconds. Aphids were then rinsed in sterile water and total RNA was extracted from each individual aphid using the RNA extraction kit (Qiagen miRNeasy kit) according to manufacturer's instructions. RNA concentrations were measured using a nanodrop nucleic acid quantification. BCR-4 relative expression was measured by RT-qPCR. The primers used were ApBCR-4F ([…]; SEQ ID NO: 107) and ApBCR-4R ([…]; SEQ ID NO: 108). The internal reference gene primers were for Actin (housekeeping gene). The forward sequence was […]; SEQ ID NO: 109 and the reverse sequence was […]; SEQ ID NO: 110. RT-qPCR was performed using a qPCR amplification ramp of 1.6 degrees C./s and the following conditions: 1) 48° C. for 30 min, 2) 95° C. for 10 minutes, 3) 95° C. for 15 seconds, 4) 60° C. for 1 minute, 5) repeat steps 3-4 40×, 6) 95° C. for 15 seconds, 7) 60° C. for 1 minute, 8) ramp change to 0.15 degrees C./s, 9) 95° C. for 1 second. RT-qPCR data was analyzed using analytic (Thermo Fisher Scientific, QuantStudio Design and Analysis) software.
At 7 post-treatment, RNA was extracted from live aphids and RT-pPCR was done as described above (see Microinjection Delivery Experimental Design) to quantify expression of BCR-4.

[4] = system: its target bacterial strains; details: cited from earlier work
Myzus persicae [5] = experiment: Cy3-PNA in artificial diet: aphid survival; assay type: in vivo; details: 0.5 to 10 mg/L in artificial diet; paper example
Procedure: Cy3-PNA solutions are formulated with 0, 0.5, 1, 5 or 10 mg/L of Cy3-PNA from Example 11 in 10 mL of 0.5% sucrose and essential amino acids.
(§2) To prepare for the treatment, aphids are grown in a lab environment and medium. In a climate-controlled room (16 h light photoperiod; 60±5% RH; 20±2° C.), plants are grown in a mixture of vermiculite and perlite and are infested with aphids. To limit maternal effects or health differences between plants, 5-10 adults from different plants are distributed among 10 two-week-old plants, and allowed to multiply to high density for 5-7 days. For experiments, second and third instar aphids are collected from healthy plants and divided into treatments so that each treatment receives approximately the same number of individuals from each of the collection plants.
Wells of a 96-well plate are filled with 200 μl of artificial aphid diet (Febvay et al., Canadian Journal of Zoology 66(11):2449-2453, 1988) and the plate is covered with parafilm to make a feeding sachet. Artificial diet is either mixed with the solution of sterile water with 0.5% sucrose and essential amino acids only as a negative control, or mixed with Cy3-PNA solutions. Cy3-PNA solutions are mixed with artificial diet to obtain final concentrations between 0.5 to 10 mg/L. […]

Rhopalosiphum maidis = experiment: Bcr1 dsRNA in artificial diet: aphid survival; assay type: in vivo; details: 0.5 to 5 μg/ml in artificial diet; paper example
Procedure: dsRNA solutions are formulated with 0 (negative control), 0.5, 1, or 5 μg/ml of Bcr1 dsRNA from Example 2 in 10 mL of TE buffer with 0.5% sucrose and essential amino acids.
as §2, with “C.), fava bean” for “C.),”
(§3) Wells of a 96-well plate are filled with 200 μl of artificial aphid diet (Febvay et al., Canadian Journal of Zoology 66(11):2449-2453, 1988) and the plate is covered with parafilm to make a feeding sachet. […]

Myzus persicae [6] = experiment: Bcr1 dsRNA in artificial diet: aphid survival; assay type: in vivo; details: 0.5 to 5 μg/ml in artificial diet; paper example
Procedure: dsRNA solutions are formulated with 0 (negative control), 0.5, 1, or 5 μg/mL of Bcr1 dsRNA from Example 7 in 10 mL of TE buffer with 0.5% sucrose and essential amino acids.
as §2, with “(16 hr” for “(16 h”
as §3

[7] = vs water, listed as PNA to BCR-4

YGRKKRRQRRR-CGTACAATAATCTCATGG (PNA against BCR-4; UniProt P04608 47-57, looked up, fragment) [BCR-4 PNA, peptide nucleic acid (PNA) to BCR-4 fused to a cell penetrating peptide (Tat)]
expression of BCR-4, water-injected fold higher than BCR-4 PNA-injected (BCR-4 [1]; microinjection 20 nl of 321 ng/μl, 4th and 5th instar): approximately 2 fold | effect on BCR-4 expression (BCR-4 [1]; microinjection, vs water): knockdown of BCR-4; also recorded: reduced BCR-4 expression | offspring produced per adult (Aphids LSR-1, A. pisum; at 3 and 7 days post-treatment): 4 offspring/adult | effect on aphid fecundity (Aphids LSR-1, A. pisum; vs water): slight decrease in aphid fecundity | effect on aphid fecundity (Aphids LSR-1, A. pisum; [7]): decreased fecundity | effect on aphid survival (Aphids LSR-1, A. pisum; [7]): slight decrease in survival; also recorded: decrease in insect survival | aphids in the 3rd instar stage ([2]; leaf perfusion 1 uM, day 2 post-treatment, first and second instar aphids): 8% | aphids alive ([2]; leaf perfusion 1 uM, day 7): 30% | effect on aphid development [2]: delayed aphid development | effect on aphid mortality [2]: increased aphid death | effect on aphid development ([2]; listed as PNA to BCR-4): slowed aphid development | effect on aphid mortality ([2]; listed as PNA to BCR-4): increased aphid mortality | mean ratio Buchnera/aphid copies (Buchnera; dead aphids collected 5 and 6 days post-treatment): approximately 57 | effect on Buchnera titers (Buchnera): increased Buchnera titers | effect on Buchnera titers (Buchnera; listed as PNA to BCR-4): misbalance in Buchnera titers | effect on BCR-4 expression (BCR-4 [3]): reduction of BCR-4 expression | effect on BCR-4 expression (BCR-4 [3]; listed as PNA to BCR-4): knocked down BCR-4 expression | median transcript levels of BCR-4, fold lower than water (BCR-4 [3]; living aphids after 7 days): approximately 3 fold

nisin
concentration showing antimicrobial activity [4]: single-digit nanomolar concentration

Cy3-gaatgcagctgc (antisense GAATGCAGCTGC; all peptide nucleic acid (PNA), 5' {Cy3}) [Bcr1 specific Cy3-PNA, antisense PNA against Bcr1 joined to Cy3 dye through click chemistry]
survival rate of aphids vs control (Myzus persicae [5]): decreased

B1: Bcr1 dsRNA: dsRNA hairpin targeting Bcr1 gene (ACYPI32128), SEQ ID NO: 93 (nucleic acid, listed as Acyrthosiphon pisum)
chain: AUGAAACUGCUGCAUGGCUUUCUGAUUAUUAUGCUGACCAUGCAUCUGAGCAUUCAGUAUGCGUAUGGCGGCCCGUUUCUGACCAAAUAUCUGUGCGAUCGCGUGUGCCAUAAACUGUGCGGCGAUGAAUUUGUGUGCAGCUGCAUUCAGUAUAAAAGCCUGAAAGGCCUGUGGUUUCCGCAUUGCCCGACCGGCAAAGCGAGCGUGGUGCUGCAUAACUUUCUGACCAGCCCGUUUUUUUUUUCGGGCUGGUCAGAAAGUUAUGCAGCACCACGCUCGCUUUGCCGGUCGGGCAAUGCGGAAACCACAGGCCUUUCAGGCUUUUAUACUGAAUGCAGCUGCACACAAAUUCAUCGCCGCACAGUUUAUGGCACACGCGAUCGCACAGAUAUUUGGUCAGAAACGGGCCGCCAUACGCAUACUGAAUGCUCAGAUGCAUGGUCAGCAUAAUAAUCAGAAAGCCAUGCAGCAGUUUCAU
survival rate of aphids vs control (Rhopalosiphum maidis): decreased | survival rate of aphids vs control (Myzus persicae [6]): decreased
